Holding throughout (assay type): in vivo, mouse
The nature of series [1]: Uptake of swallowed JP4-039 in esophageal SP cells incl. GFP+ marrow chimeric mice.
In series [2] the test system is mice exposed to total body irradiation. Nature of the series: Survival of mice after total body irradiation. The note with it: for protection from death: vs TEMPO or F14 alone, preliminary data. As to the method: In FIG. 4A, mice received intraperitoneal injection of 10 mg per kilogram of each of the chemicals indicated, then 24 hours later received 9.75 Gy total body irradiation according to published methods. Mice were followed for survival according to IACUC regulations. […] (P=0.0008). In FIG. 4B, mice received intraperitoneal injection of JP4-039 either 10 minutes before (square symbols) or 4 hours after (triangle symbols) irradiation with 9.75 Gy.
Groups of 15 mice received intraperitoneal injection of 10 mg. per kilogram of each indicated GS-nitroxide compound or carrier (Cremphora plus alcohol at 1 to 1 ratio, then diluted 1 to 10 in distilled water). Mice received 10 mg per kilogram intra-peritoneal injection 24 hours prior to total body irradiation. Control mice received radiation alone. […] (P=0.0005) FIG. 6 is a graph showing that GS-nitroxide JP4-039 is an effective hematopoietic cell radiation mitigator when delivered 24 hr after irradiation. Irradiation survival curves were performed on cells from the 32D cl 3 mouse hematopoietic progenitor cell line, incubated in 10 μM JP4-039 for 1 hour before irradiation, or plated in methylcellulose containing 10 μM […] after irradiation. Cells were irradiated from 0 to 8 Gy, plated in 0.8% methylcellulose containing media, and incubated for 7 days at 37° C. Colonies of greater than 50 cells were counted and data analyzed by linear quadratic and single-hit, multi-target models.
The above methods are based on preliminary data showing that JP4-039 administered via i.p. injection at 10 mg/kg 10 minutes before either […] [FIG. 21A] or 9.15 Gy [FIG. 21B] total-body irradiation protected C57BL/6NHsd female mice from esophagitis-induced death compared to those that received either TEMPO or F14 alone (p=0.0301 and p=0.010, respectively).

The test system of series [3] is mice, 29 Gy upper body irradiation plus GFP+ male marrow. Nature of the series: Survival after 29 Gy upper body irradiation with GFP+ marrow injection on day 5. The note with it: given before 29 Gy; GFP+ marrow i.v. day 5; p=0.0315 (MnSOD-PL), p=0.0462 (JP4-039/F15). From the text:
Bone marrow transplantation, esophageal excision and cell sorting. Five days after irradiation, the time shown to optimize marrow cell homing to the irradiated esophagus, mice received intravenous injection of 1.0×10^7 C57BL/6HNsd GFP+ male bone marrow cells prepared as single-cell suspension from donor male mice according to published methods (Niu Y, et al. Irradiated esophageal cells are protected from radiation-induced recombination by MnSOD gene therapy. Rad Res 173: 453-461, 2010 and Niu Y, et al. Intraesophageal MnSOD-plasmid liposome administration enhances engraftment and self-renewal capacity of bone marrow derived progenitors of esophageal squamous epithelium. Gene Therapy 15: 347-356, 2008). At serial time points after marrow transplantation, esophagus specimens were removed, and single cell suspensions prepared according to published methods (Id.). The esophagus cell suspensions were sorted for GFP+ cells. The number of GFP+ cells per 10^6 was calculated as described previously (Id.). (GFP+) cells were placed on slides, and stained for detection of donor cell markers (Id.).
Intraesophageal JP4-039/formulation improves survival through recovery of endogenous esophageal progenitor cells. […] Five groups of 15 mice each received 29 Gy to the upper body. One group received MnSOD-PL 24 hours prior to irradiation.

For series [4], the system named is C57BL/6NHsd mice, upper body irradiation. Nature of the series: Survival after upper body (thoracic) irradiation, irradiation-induced esophagitis. To be noted: for protection (survival): 4 μg JP4-039 in 110 μl F15 10 minutes before, MnSOD-PL 24 hours prior, preliminary data. From the text: Animals and animal care. C57BL/6HNsd female and C57BL/6JHNsd-GFP male mice (22-22 gm) were housed, five per cage and fed standard laboratory chow according to previous publications (3). C57BL/6NHsd mice (15 per group) were irradiated (details are given in the next section) and received swallowed JP4-039 or MnSOD-PL pre- or post-radiation. The mice were monitored for development of esophagitis.
Irradiation. Mice were irradiated to 28 or 29 Gy to the upper body using a JL Shepherd Mark I cesium irradiator (J.L. Shepherd and Associates, San Fernando, Ca, USA) ([…]), according to published methods (Epperly M W, et al. Zhang X, Nie S, Cao S, Kagan V, Tyurin V and Greenberger J S: MnSOD-plasmid liposome gene therapy effects on ionizing irradiation induced lipid peroxidation of the esophagus. In Vivo 19: 997-1004, 2005). The head and abdomen were shielded, as described previously (Stickle R L, et al. Prevention of irradiation-induced esophagitis by plasmid/liposome delivery of the human manganese superoxide dismutase (MnSOD) transgene. Radiat Oncol Invest Clinical & Basic Res 7: 204-217, 1999), so that only the thoracic cavity received irradiation.
Intraesophageal drug administration. The methods for preparation of MnSOD-plasmid liposomes using PNVL3 lipid have been published previously (Epperly M W, et al. Modulation of radiation-induced cytokine elevation associated with esophagitis and esophageal stricture by manganese superoxide dismutase-plasmid/liposome (MnSOD-PL) gene therapy. Radiat Res 155: 2-14, 2001). Briefly, 100 μl liposomes containing […] plasmid were injected by syringe intraesophageally into non-anesthetized mice immediately after they received 100 μl distilled water.
The stock solutions described above were diluted, so that the total amount of JP4-039 administered to each animal was 400 μg. Mice were immobilized for irradiation with intraperitoneal Nembutal anesthesia after administration of JP4-039 as described above. Mice were exposed to single-dose (29 Gy) or fractionated radiation (11.5 Gy per day for four days) to the upper body.

With `CC(C)C[C@@H](/C=C/CC(=O)NC1CC(C)(C)N([O])C(C)(C)C1)NC(=O)OC(C)(C)C` [JP4-039, TEMPO-4-yl-(S,E)-5-(tert-butoxycarbonylamino)-7-methyloct-3-enamide], the “uptake in GFP+ esophageal (SP) stem cells” value in series [1] (GFP+ marrow chimeric mice) is listed as “reaches GFP+ esophageal (SP) stem cells”. The “uptake in esophageal SP cells” value in series [1] (preliminary data) was “reaches SP cells”. In addition, the protection from death result in series [2] (10 mg/kg i.p. 10 minutes before 9/5 Gy total-body irradiation, p=0.0301) is “protected”; in series [2] (10 mg/kg i.p. 10 minutes before 9.15 Gy total-body irradiation, p=0.010) it was “protected”. Besides, the survival of mice result was “significant increase in survival” in series [2] (10 mg/kg i.p. 24 hours before 9.75 Gy total body irradiation, vs irradiated control, P=0.0008) and “increases survival” in series [2] (10 mg/kg i.p. 24 hours prior to 9.5 Gy total body irradiation, P=0.0005). The survival result in series [3] was “improved survival”; in series [4] (400 μg in F15 immediately prior to single fraction 29 Gy thoracic irradiation, vs F15 vehicle only, p=0.0384), “increased survival”; in series [4] (prior to each of four fractions of 11.5 Gy thoracic irradiation, vs F15 only, p=0.0388), “increased survival”. Further, the “protection (survival)” value in series [4] (29 Gy upper body irradiation, vs F15 or radiation alone) is given as “protective”; in series [4] (four daily sessions of 12 Gy, p=0.0430), “protective”.

The values above are taken from US20190210969A1, “INTRAESOPHAGEAL ADMINISTRATION OF TARGETED NITROXIDE AGENTS FOR PROTECTION AGAINST IONIZING IRRADIATION-INDUCED ESOPHAGITIS” (University of Pittsburgh - Of the Commonwealth System of …, priority 2010, published 2019).
